In PubChem BioAssay AID1963437 (Molecular Pharmacology Branch, DTP, NCI, 2024):
pIC50: −log10 of the molar value. Several values for one entry are separate records, joined by “and”; a condition that tells them apart may be missing. Equal entries are not always repeated.

Tested on: OVCAR-8 complex spheroid, growth inhibition
Assay: Anticancer human tumor OVCAR-8 cell line growth inhibition [Asc];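 further: spheroids exposed to agents for 7 days before readout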;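 on viability, T/C: percent viability relative to DMSO vehicle wells taken as 100%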
Conditions: for viability, T/C: stronger effect = lower value; active means viability on the fitted dose curve at most 10% of control; inactive means the rest
Procedure, shortened: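 Complex spheroids combining tumor cells with HUVEC endothelial cells and human MSCs, at 37 degrees C, 5% CO2; agents tested alone or combined, half-log dilutions from at or near clinical Cmax, or 10 microM if Cmax unknown.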

[1] = curve of first compound, second compound 0.00949 µM
[2] = curve of first compound, second compound 0.03 µM
[3] = curve of first compound, second compound 0.0949 µM
[4] = curve of first compound, second compound 0.3 µM
[5] = curve of first compound, second compound 0.949 µM
[6] = curve of first compound, second compound 3 µM
[7] = second compound 0.00949 µM, first compound 0.00316 µM
[8] = second compound 0.00949 µM, first compound 0.01 µM
[9] = second compound 0.00949 µM, first compound 0.0316 µM
[10] = second compound 0.00949 µM, first compound 0.1 µM
[11] = second compound 0.00949 µM, first compound 0.316 µM
[12] = second compound 0.00949 µM, first compound 1 µM
[13] = second compound 0.03 µM, first compound 0.00316 µM
[14] = second compound 0.03 µM, first compound 0.01 µM
[15] = second compound 0.03 µM, first compound 0.0316 µM
[16] = second compound 0.03 µM, first compound 0.1 µM
[17] = second compound 0.03 µM, first compound 0.316 µM
[18] = second compound 0.03 µM, first compound 1 µM
[19] = second compound 0.0949 µM, first compound 0.00316 µM
[20] = second compound 0.0949 µM, first compound 0.01 µM
[21] = second compound 0.0949 µM, first compound 0.0316 µM
[22] = second compound 0.0949 µM, first compound 0.1 µM
[23] = second compound 0.0949 µM, first compound 0.316 µM
[24] = second compound 0.0949 µM, first compound 1 µM
[25] = second compound 0.3 µM, first compound 0.00316 µM
[26] = second compound 0.3 µM, first compound 0.01 µM
[27] = second compound 0.3 µM, first compound 0.0316 µM
[28] = second compound 0.3 µM, first compound 0.1 µM
[29] = second compound 0.3 µM, first compound 0.316 µM
[30] = second compound 0.3 µM, first compound 1 µM
[31] = second compound 0.949 µM, first compound 0.00316 µM
[32] = second compound 0.949 µM, first compound 0.01 µM
[33] = second compound 0.949 µM, first compound 0.0316 µM
[34] = second compound 0.949 µM, first compound 0.1 µM
[35] = second compound 0.949 µM, first compound 0.316 µM
[36] = second compound 0.949 µM, first compound 1 µM
[37] = second compound 3 µM, first compound 0.00316 µM
[38] = second compound 3 µM, first compound 0.01 µM
[39] = second compound 3 µM, first compound 0.0316 µM
[40] = second compound 3 µM, first compound 0.1 µM
[41] = second compound 3 µM, first compound 0.316 µM
[42] = second compound 3 µM, first compound 1 µM

CNC(C)C(=O)NC1CN(S(=O)(=O)c2cccc(S(=O)(=O)N3CCC4CCC(C(=O)NC(c5ccccc5)c5ccccc5)N4C(=O)C(NC(=O)C(C)NC)C3)c2)CCC2CCC(C(=O)NC(c3ccccc3)c3ccccc3)N2C1=O (stereo not drawn) + CCN1C(C(=O)NC23CCC(C(=O)O)(CC2)CC3)C(c2cccc(Cl)c2F)C2(C(=O)Nc3cc(Cl)ccc32)C12CCCCC2
inactive: viability, T/C [7] 100% | viability, T/C [8] 83.8% | viability, T/C [9] 91.8% | viability, T/C [10] 76.4% | viability, T/C [11] 75.4% | viability, T/C [12] 71.3% | viability, T/C [13] 107% | viability, T/C [14] 99.3% | viability, T/C [15] 94% | viability, T/C [16] 88.8% | viability, T/C [17] 75% | viability, T/C [18] 83.3% | viability, T/C [19] 94.7% | viability, T/C [20] 98.1% | viability, T/C [21] 90.9% | viability, T/C [22] 79% | viability, T/C [23] 74.4% | viability, T/C [24] 63.6% | viability, T/C [25] 112% | viability, T/C [26] 101% | viability, T/C [27] 86.7% | viability, T/C [28] 65.9% | viability, T/C [29] 68.6% | viability, T/C [30] 70.1% | viability, T/C [31] 91.7% | viability, T/C [32] 89.1% | viability, T/C [33] 99% | viability, T/C [34] 76.7% | viability, T/C [35] 64.3% | viability, T/C [36] 66.8% | viability, T/C [37] 118% | viability, T/C [38] 102% | viability, T/C [39] 115% | viability, T/C [40] 88% | viability, T/C [41] 84.5% | viability, T/C [42] 88%
< 6.00: pIC50 [1] | pIC50 [2] | pIC50 [3] | pIC50 [4] | pIC50 [5] | pIC50 [6]

C=CC(=O)N1CCN(c2nc(=O)n(-c3c(C)ccnc3C(C)C)c3nc(-c4c(O)cccc4F)c(F)cc23)C(C)C1 (stereo not drawn) + CCN1C(C(=O)NC23CCC(C(=O)O)(CC2)CC3)C(c2cccc(Cl)c2F)C2(C(=O)Nc3cc(Cl)ccc32)C12CCCCC2
< 5.00: pIC50 [1] | pIC50 [2] | pIC50 [3] | pIC50 [4] | pIC50 [5] | pIC50 [6]
inactive: viability, T/C [9] 94.2% | viability, T/C [10] 89.9% | viability, T/C [11] 94.7% | viability, T/C [12] 81.7% | viability, T/C (second compound 0.00949 µM, first compound 3.16 µM) 89.3% | viability, T/C (second compound 0.00949 µM, first compound 10 µM) 100% | viability, T/C [15] 101% | viability, T/C [16] 90.6% | viability, T/C [17] 85.3% | viability, T/C [18] 76.8% | viability, T/C (second compound 0.03 µM, first compound 3.16 µM) 102% | viability, T/C (second compound 0.03 µM, first compound 10 µM) 102% | viability, T/C [21] 101% | viability, T/C [22] 78.6% | viability, T/C [23] 88% | viability, T/C [24] 74.2% | viability, T/C (second compound 0.0949 µM, first compound 3.16 µM) 86.1% | viability, T/C (second compound 0.0949 µM, first compound 10 µM) 116% | viability, T/C [27] 88% | viability, T/C [28] 96.7% | viability, T/C [29] 86.3% | viability, T/C [30] 93.7% | viability, T/C (second compound 0.3 µM, first compound 3.16 µM) 88.2% | viability, T/C (second compound 0.3 µM, first compound 10 µM) 106% | viability, T/C [33] 87.3% | viability, T/C [34] 103% | viability, T/C [35] 102% | viability, T/C [36] 90.8% | viability, T/C (second compound 0.949 µM, first compound 3.16 µM) 104% | viability, T/C (second compound 0.949 µM, first compound 10 µM) 115% | viability, T/C [39] 124% | viability, T/C [40] 103% | viability, T/C [41] 101% | viability, T/C [42] 106% | viability, T/C (second compound 3 µM, first compound 3.16 µM) 120% | viability, T/C (second compound 3 µM, first compound 10 µM) 137%

Cc1c(S(C)(=O)=O)c(-c2cc(F)cc(N3CCN(c4ccc(NS(=O)(=O)c5ccc(NC(CCN6CCC(C(=O)OCCCP(=O)(O)O)CC6)CSc6ccccc6)c(S(=O)(=O)C(F)(F)F)c5)cc4)CC3)c2)c(-c2ccc(Cl)cc2)n1C(C)C (stereo not drawn)
< 5.00: pIC50 (compound alone, run of 11/07/2022)
inactive: viability, T/C (compound 0.0316 µM) 91.2% [middle of 7 runs] | viability, T/C (compound 0.1 µM) 94% [middle of 7 runs] | viability, T/C (compound 1 µM) 98.1% [middle of 7 runs] | viability, T/C (compound 3.16 µM) 104% [middle of 7 runs]

Cc1nc(N2CCC3(CC2)COC(C)C3N)c(CO)nc1Sc1ccnc(N)c1Cl (stereo not drawn)
< 5.52: pIC50 (curve of compound)
inactive: viability, T/C (compound 0.00949 µM) 111% and 101% and 103% | viability, T/C (compound 0.03 µM) 121% and 112% and 102% | viability, T/C (compound 0.0949 µM) 195% and 147% and 149% | viability, T/C (compound 0.3 µM) 239% and 173% and 192% | viability, T/C (compound 0.949 µM) 261% and 212% and 243% | viability, T/C (compound 3 µM) 261% and 201% and 223%

O=C(c1ccc(F)c(F)c1Nc1ccc(I)cc1F)N1CC(O)([C@@H]2CCCCN2)C1 + CCN1C(C(=O)NC23CCC(C(=O)O)(CC2)CC3)C(c2cccc(Cl)c2F)C2(C(=O)Nc3cc(Cl)ccc32)C12CCCCC2
< 6.00: pIC50 [1] | pIC50 [2] | pIC50 [3] | pIC50 [4] | pIC50 [5] | pIC50 [6]
inactive: viability, T/C [7] 102% | viability, T/C [8] 102% | viability, T/C [9] 119% | viability, T/C [10] 153% | viability, T/C [11] 230% | viability, T/C [12] 104% | viability, T/C [13] 106% | viability, T/C [14] 108% | viability, T/C [15] 138% | viability, T/C [16] 161% | viability, T/C [17] 241% | viability, T/C [18] 101% | viability, T/C [19] 101% | viability, T/C [20] 97% | viability, T/C [21] 122% | viability, T/C [22] 168% | viability, T/C [23] 208% | viability, T/C [24] 113% | viability, T/C [25] 105% | viability, T/C [26] 103% | viability, T/C [27] 159% | viability, T/C [28] 173% | viability, T/C [29] 238% | viability, T/C [30] 137% | viability, T/C [31] 97.2% | viability, T/C [32] 102% | viability, T/C [33] 163% | viability, T/C [34] 175% | viability, T/C [35] 248% | viability, T/C [36] 139% | viability, T/C [37] 151% | viability, T/C [38] 141% | viability, T/C [39] 183% | viability, T/C [40] 217% | viability, T/C [41] 260% | viability, T/C [42] 161%
